Laboratory results from US20100267561A1, “HERBICIDAL PYRIDAZINONE DERIVATIVES” (priority 2007, published 2010).

Experiments:
Experiment in all cases: Test B pre-/postemergence plant response
Type in all cases: in vivo
[1] = test system: Italian ryegrass (Lolium multiflorum); conditions: for Ryegrass, Italian plant response rating: 8 g ai/ha
Outline: (§1)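 Seeds were sown and sprayed preemergence, while plants at 2 to 18 cm (1- to 4-leaf stage) got postemergence sprays. Compounds were formulated in a non-phytotoxic solvent mixture with surfactant. After 13 to 15 days in a greenhouse, injury was rated visually against untreated controls, 0 (no effect) to 100 (complete control).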

[2] = test system: johnsongrass (Sorghum halepense); conditions: for Johnsongrass plant response rating: 8 g ai/ha
Outline: as §1

[3] = test system: surinam grass (Brachiaria decumbens); conditions: for Surinam Grass plant response rating: 8 g ai/ha
Outline: as §1

[4] = test system: bermudagrass (Cynodon dactylon); conditions: for Bermudagrass plant response rating: 8 g ai/ha
Outline: as §1

[5] = test system: goosegrass (Eleusine indica); conditions: for Goosegrass plant response rating: 8 g ai/ha
Outline: as §1

[6] = test system: cocklebur (Xanthium strumarium); conditions: for Cocklebur plant response rating: 8 g ai/ha
Outline: as §1

[7] = test system: velvetleaf (Abutilon theophrasti); conditions: for Velvetleaf plant response rating: 8 g ai/ha
Outline: as §1

[8] = test system: common ragweed (Ambrosia elation); conditions: for Ragweed plant response rating: 8 g ai/ha
Outline: as §1

[9] = test system: morningglory (Ipomoea coccinea); conditions: for Morningglory plant response rating: 8 g ai/ha
Outline: as §1

soybean (Glycine max) = conditions: for Soybean plant response rating: 8 g ai/ha
Outline: as §1

[10] = test system: wheat (Triticum aestivum); conditions: for Wheat plant response rating: 8 g ai/ha
Outline: as §1

[11] = test system: lambsquarters (Chenopodium album); conditions: for Lambsquarters plant response rating: 8 g ai/ha
Outline: as §1

kochia (Kochia scoparia) = conditions: for Kochia plant response rating: 8 g ai/ha
Outline: as §1

[12] = test system: common (oilseed) sunflower (Helianthus annuus); conditions: Preemergence; for Sunflower plant response rating: 8 g ai/ha
Outline: as §1

[13] = Postemergence, 16 g ai/ha, scale 0 to 100
[14] = Postemergence, 31 g ai/ha, scale 0 to 100, 0 no effect, 100 complete control
[15] = Postemergence, 62 g ai/ha, scale 0 to 100, 0 no effect, 100 complete control
[16] = Preemergence, 16 g ai/ha, scale 0 to 100 (0 no effect, 100 complete control)
[17] = Preemergence, 31 g ai/ha, 0 to 100 scale, 0 no effect, 100 complete control
[18] = Preemergence, 62 g ai/ha, scale 0 to 100
[19] = Preemergence, scale 0 to 100 (0 no effect, 100 complete control)
[20] = 16 g ai/ha, scale 0 to 100 (0 no effect, 100 complete control)
[21] = 31 g ai/ha, 0 to 100 scale, 0 no effect, 100 complete control

Compound: Cc1cc(-c2ccc(Cl)cc2)nn1-c1c(OC(=O)C(C)C)cnn(C)c1=O [Compound 34]
- Ryegrass, Italian plant response rating ([1]; postemergence, 0-100 scale): 70
- Plant response rating, Ryegrass, Italian [1, 13]: 85
- Plant response rating, Ryegrass, Italian [1, 14]: 95
- Plant response rating, Ryegrass, Italian [1, 15]: 100
- Plant response rating, Ryegrass, Italian [1, 16]: 100
- Plant response rating, Ryegrass, Italian [1, 17]: 100
- Plant response rating, Ryegrass, Italian [1, 18]: 100
- Ryegrass, Italian plant response rating ([1]; Preemergence, scale 0 to 100): 100
- Johnsongrass plant response rating ([2]; postemergence, 0-100 scale): 75
- Plant response rating, Johnsongrass [2, 13]: 95
- Plant response rating, Johnsongrass [2, 14]: 98
- Plant response rating, Johnsongrass [2, 15]: 100
- Plant response rating, Johnsongrass [2, 16]: 95
- Plant response rating, Johnsongrass [2, 17]: 100
- Plant response rating, Johnsongrass [2, 18]: 100
- Johnsongrass plant response rating ([2]; Preemergence, scale 0 to 100): 65
- Surinam Grass plant response rating ([3]; postemergence, 0-100 scale): 70
- Plant response rating, Surinam Grass [3, 13]: 80
- Plant response rating, Surinam Grass [3, 15]: 100
- Plant response rating, Surinam Grass [3, 16]: 100
- Plant response rating, Surinam Grass [3, 17]: 100
- Plant response rating, Surinam Grass [3, 18]: 100
- Surinam Grass plant response rating ([3]; Preemergence, scale 0 to 100): 95
- Bermudagrass plant response rating ([4]; postemergence, 0-100 scale): 65
- Plant response rating, Bermudagrass [4, 13]: 100
- Plant response rating, Bermudagrass [4, 14]: 100
- Plant response rating, Bermudagrass [4, 15]: 100
- Bermudagrass plant response rating [4, 19]: 50
- Plant response rating, Bermudagrass [4, 16]: 98
- Plant response rating, Bermudagrass [4, 17]: 98
- Plant response rating, Bermudagrass [4, 18]: 100
- Goosegrass plant response rating ([5]; postemergence, 0-100 scale): 50
- Plant response rating, Goosegrass [5, 13]: 55
- Plant response rating, Goosegrass [5, 14]: 70
- Plant response rating, Goosegrass [5, 15]: 80
- Plant response rating, Goosegrass [5, 16]: 85
- Plant response rating, Goosegrass [5, 17]: 98
- Plant response rating, Goosegrass [5, 18]: 100
- Goosegrass plant response rating ([5]; Preemergence, scale 0 to 100): 55
- Cocklebur plant response rating ([6]; postemergence, 0-100 scale): 0
- Plant response rating, Cocklebur [6, 13]: 0
- Plant response rating, Cocklebur [6, 14]: 0
- Plant response rating, Cocklebur [6, 15]: 0
- Plant response rating, Cocklebur [6, 16]: 0
- Plant response rating, Cocklebur [6, 17]: 0
- Plant response rating, Cocklebur [6, 18]: 0
- Cocklebur plant response rating ([6]; Preemergence, scale 0 to 100): 0
- Velvetleaf plant response rating ([7]; postemergence, 0-100 scale): 0
- Plant response rating, Velvetleaf [7, 13]: 0
- Plant response rating, Velvetleaf [7, 15]: 0
- Plant response rating, Velvetleaf [7, 16]: 0
- Plant response rating, Velvetleaf [7, 17]: 0
- Plant response rating, Velvetleaf [7, 18]: 0
- Velvetleaf plant response rating ([7]; Preemergence, scale 0 to 100): 0
- Ragweed plant response rating ([8]; postemergence, 0-100 scale): 0
- Plant response rating, Ragweed [8, 13]: 0
- Plant response rating, Ragweed [8, 14]: 0
- Plant response rating, Ragweed [8, 15]: 0
- Plant response rating, Ragweed [8, 16]: 0
- Plant response rating, Ragweed [8, 17]: 0
- Plant response rating, Ragweed [8, 18]: 0
- Ragweed plant response rating ([8]; Preemergence, scale 0 to 100): 0
- Morningglory plant response rating ([9]; postemergence, 0-100 scale): 0
- Plant response rating, Morningglory [9, 13]: 0
- Plant response rating, Morningglory [9, 14]: 0
- Plant response rating, Morningglory [9, 15]: 0
- Plant response rating, Morningglory [9, 16]: 0
- Plant response rating, Morningglory [9, 17]: 0
- Plant response rating, Morningglory [9, 18]: 0
- Morningglory plant response rating ([9]; Preemergence, scale 0 to 100): 0
- Soybean plant response rating (soybean (Glycine max); postemergence, 0-100 scale): 0
- Plant response rating, Soybean (soybean (Glycine max); [13]): 0
- Plant response rating, Soybean (soybean (Glycine max); [15]): 0
- Plant response rating, Soybean (soybean (Glycine max); [16]): 0
- Plant response rating, Soybean (soybean (Glycine max); [17]): 0
- Plant response rating, Soybean (soybean (Glycine max); [18]): 0
- Soybean plant response rating (soybean (Glycine max); Preemergence, scale 0 to 100): 0
- Wheat plant response rating ([10]; postemergence, 0-100 scale): 0
- Plant response rating, Wheat [10, 13]: 40
- Plant response rating, Wheat [10, 15]: 90
- Plant response rating, Wheat [10, 16]: 0
- Plant response rating, Wheat [10, 17]: 30
- Plant response rating, Wheat [10, 18]: 40
- Wheat plant response rating ([10]; Preemergence, scale 0 to 100): 0
- Lambsquarters plant response rating ([11]; postemergence, 0-100 scale): 0
- Plant response rating, Lambsquarters [11, 13]: 0
- Plant response rating, Lambsquarters [11, 14]: 0
- Plant response rating, Lambsquarters [11, 15]: 0
- Plant response rating, Lambsquarters [11, 16]: 0
- Plant response rating, Lambsquarters [11, 17]: 0
- Plant response rating, Lambsquarters [11, 18]: 0
- Lambsquarters plant response rating ([11]; Preemergence, scale 0 to 100): 0
- Kochia plant response rating (kochia (Kochia scoparia); postemergence, 0-100 scale): 0
- Plant response rating, Kochia (kochia (Kochia scoparia); [13]): 0
- Plant response rating, Kochia (kochia (Kochia scoparia); [14]): 0
- Plant response rating, Kochia (kochia (Kochia scoparia); [15]): 0
- Plant response rating, Kochia (kochia (Kochia scoparia); [16]): 0
- Plant response rating, Kochia (kochia (Kochia scoparia); [17]): 0
- Plant response rating, Kochia (kochia (Kochia scoparia); [18]): 0
- Kochia plant response rating (kochia (Kochia scoparia); Preemergence, scale 0 to 100): 0
- Plant response rating, Sunflower [12, 20]: 0
- Plant response rating, Sunflower [12, 21]: 0
- Plant response rating, Sunflower ([12]; 62 g ai/ha, scale 0 to 100): 0
- Sunflower plant response rating ([12]; scale 0 to 100): 0

Compound: Cn1ncc(O)c(-c2nn(-c3ccc(Cl)cc3)cc2Br)c1=O [Compound 31]
- Plant response rating, Ryegrass, Italian [1, 16]: 90
- Plant response rating, Ryegrass, Italian [1, 17]: 90
- Plant response rating, Ryegrass, Italian [1, 18]: 100
- Ryegrass, Italian plant response rating ([1]; Preemergence, scale 0 to 100): 50
- Plant response rating, Johnsongrass [2, 16]: 60
- Plant response rating, Johnsongrass [2, 17]: 75
- Plant response rating, Johnsongrass [2, 18]: 75
- Johnsongrass plant response rating ([2]; Preemergence, scale 0 to 100): 55
- Plant response rating, Surinam Grass [3, 16]: 80
- Plant response rating, Surinam Grass [3, 17]: 100
- Plant response rating, Surinam Grass [3, 18]: 100
- Surinam Grass plant response rating ([3]; Preemergence, scale 0 to 100): 80
- Bermudagrass plant response rating [4, 19]: 95
- Plant response rating, Bermudagrass [4, 16]: 100
- Plant response rating, Bermudagrass [4, 17]: 100
- Plant response rating, Bermudagrass [4, 18]: 100
- Plant response rating, Goosegrass [5, 16]: 90
- Plant response rating, Goosegrass [5, 17]: 100
- Plant response rating, Goosegrass [5, 18]: 100
- Goosegrass plant response rating ([5]; Preemergence, scale 0 to 100): 85
- Plant response rating, Cocklebur [6, 16]: 0
- Plant response rating, Cocklebur [6, 17]: 0
- Plant response rating, Cocklebur [6, 18]: 0
- Cocklebur plant response rating ([6]; Preemergence, scale 0 to 100): 0
- Plant response rating, Velvetleaf [7, 16]: 0
- Plant response rating, Velvetleaf [7, 17]: 0
- Plant response rating, Velvetleaf [7, 18]: 0
- Velvetleaf plant response rating ([7]; Preemergence, scale 0 to 100): 0
- Plant response rating, Ragweed [8, 16]: 0
- Plant response rating, Ragweed [8, 17]: 0
- Plant response rating, Ragweed [8, 18]: 0
- Ragweed plant response rating ([8]; Preemergence, scale 0 to 100): 0
- Plant response rating, Morningglory [9, 16]: 0
- Plant response rating, Morningglory [9, 17]: 0
- Plant response rating, Morningglory [9, 18]: 0
- Morningglory plant response rating ([9]; Preemergence, scale 0 to 100): 0
- Plant response rating, Soybean (soybean (Glycine max); [16]): 0
- Plant response rating, Soybean (soybean (Glycine max); [17]): 0
- Plant response rating, Soybean (soybean (Glycine max); [18]): 60
- Soybean plant response rating (soybean (Glycine max); Preemergence, scale 0 to 100): 0
- Plant response rating, Wheat [10, 16]: 0
- Plant response rating, Wheat [10, 17]: 0
- Plant response rating, Wheat [10, 18]: 80
- Wheat plant response rating ([10]; Preemergence, scale 0 to 100): 0
- Plant response rating, Lambsquarters [11, 16]: 0
- Plant response rating, Lambsquarters [11, 17]: 0
- Plant response rating, Lambsquarters [11, 18]: 0
- Lambsquarters plant response rating ([11]; Preemergence, scale 0 to 100): 0
- Plant response rating, Kochia (kochia (Kochia scoparia); [16]): 0
- Plant response rating, Kochia (kochia (Kochia scoparia); [17]): 0
- Plant response rating, Kochia (kochia (Kochia scoparia); [18]): 0
- Kochia plant response rating (kochia (Kochia scoparia); Preemergence, scale 0 to 100): 0
- Plant response rating, Sunflower [12, 20]: 0
- Plant response rating, Sunflower [12, 21]: 0
- Plant response rating, Sunflower ([12]; 62 g ai/ha, scale 0 to 100): 0
- Sunflower plant response rating ([12]; scale 0 to 100): 0
